{"source": "patent US20220409617A1", "about": "“Drug Formulations and Methods of Treatment for Metabolic Disorders” (The Regents of the University of California, priority 2019, published 2022)", "key": {"leptin": {"system": "leptin", "assay": "Serum leptin ELISA in HFD-fed mice", "type": "in vivo, mouse", "procedure": "Further assessment was performed to determine the level of leptin circulating in HFD-fed mice treated with sphingolipid-like compound 893. Mice were fed a HFD for 4 weeks and randomly distributed into two groups with the same mean weight. Mice were gavaged with water (n=7) or 120 mg/kg 893 (n=8) at ZT8.5. Blood was collected from the saphenous vein between ZT15-18 in pairs of treated vs. untreated animals and leptin levels were measured in serum using ELISA (CrystalChem, cat #90030)."}, "ARF6": {"molecular_target": "ARF6 (Homo sapiens, UniProt P62330)", "sequence (P62330 whole entry, species assumed)": "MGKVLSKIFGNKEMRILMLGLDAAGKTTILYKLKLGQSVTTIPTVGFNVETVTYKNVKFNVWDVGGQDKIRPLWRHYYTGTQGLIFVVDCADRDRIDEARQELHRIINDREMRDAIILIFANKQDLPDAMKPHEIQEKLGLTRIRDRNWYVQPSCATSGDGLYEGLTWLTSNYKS", "settings": "cited from earlier work"}, "ob/ob mice": {"system": "ob/ob mice", "assay": "Leptin-deficient ob/ob mice: food intake, body weight, OGTT", "type": "in vivo, mouse", "procedure": "To more rigorously assess the role of leptin in the anti-obesogenic effects of sphingolipid-like compound 893, the response of leptin-deficient ob/ob mice to sphingolipid-like compound 893 was measured. As expected, ob/ob mice were hyperphagic and became obese on the standard chow diet provided by University Lab Animal Resources (16% kcal from fat). Ob/ob animals were used in experiments once they attained an equivalent body weight to C57BL/6J mice fed the HFD for 24 weeks (FIG. 36).\nMice were fasted for 6 h prior to blood glucose testing at ZT10. When sphingolipid-like compound 893 treatment was combined with an OGTT, mice were treated at ZT6. Once baseline fasting blood glucose was determined using a handheld blood glucose meter (Prodigy Diabetes Care, Charlotte, N.C.) and a drop of blood collected from a tail vein nick, mice were gavaged with an oral glucose solution (20% w/v in water, 2 g/kg bodyweight) and blood glucose measured in a drop of tail vein blood at 0, 15, 30, 60 and 120 min. The area under the curve was determined using Graphpad Prism software.\nMice were singly housed and allowed to acclimate for 72 h before food intake was monitored. Food consumption was determined by monitoring the weight of food in the hopper. Initial food and body weight measurements were taken at ZT9 and final measurements were taken 16 h later to capture the active period where most consumption occurred. Home cage feeding studies were performed with C57BL/6J mice maintained on a HFD for 24 weeks (33 weeks of age), or ob/ob mice at 8 weeks of age. Mice received vehicle or 120 mg/kg sphingolipid-like compound 893 by gavage at ZT8.5. For experiments involving leptin, 18 week old, SD fed (16% kcal from fat, 2020×, Envigo) C57BL/6J mice received vehicle or 120 mg/kg sphingolipid-like compound 893 by gavage at ZT8.5. At ZT11.5, vehicle (20 mM Tris-Cl, pH 8.0) or 2 mg/kg recombinant mouse leptin (498-OB, R&D Systems, Minneapolis, Minn.) was delivered by intraperitoneal injection. The same 8 mice were used for all treatments following a 48 h washout period, and treatments were administered in the following order: vehicle, sphingolipid-like compound 893, leptin, and leptin+sphingolipid-like compound 893. All data collected from one mouse was excluded due to inadvertent pharyngeal administration during gavage reducing the n from 8 to 7 (FIG. 5a-d). […] One ob/ob mouse died during Echo MRI for unknown reasons after 6 d of treatment with sphingolipid-like compound 893; data from this mouse was analyzed prior to death."}, "[1]": {"assay": "Plasma pharmacokinetics in mice", "type": "in vivo", "settings": "mouse, po, single dose 120 mg/kg by gavage", "procedure": "Plasma pharmacokinetic analysis of sphingolipid-like compound 893 was performed by Pharmaron Corporation (Beijing, China). C16:0 ceramide levels were quantified in cells using the method described in (T. Kasumov, et al., Anal. Biochem. 401: 154-161, 2010, the disclosure of which is incorporated herein by reference) with minor modifications. Cultured cells were washed twice in PBS and scraped into 250 μL of HPLC grade water and flash frozen until time of analysis. On the day of analysis, samples were thawed, and an aliquot used for protein quantification. For C16:0 ceramide levels in mouse liver, 25 mg of tissue was homogenized in 1 ml of ice-cold PBS using a mechanical probe homogenizer (VWR, Radnor, Pa.), protein levels quantified, and 50 μl of the homogenate diluted with 150 μl HPLC-grade water for C16:0 ceramide analysis. […] Samples were analyzed by ultra-performance liquid chromatography tandem mass spectrometry (UPLC-MS/MS) using a Waters Micromass Quattro Premier XE equipped with a Waters ACQUITY BEH C4 column (Waters Corp.). […] Standard curves prepared from C16:0 ceramide (#860516, Avanti Polar Lipids, Alabaster, Ala.) dissolved in ethanol were used for quantitation and were linear from 4.1 nM-1,000 nM, with an R^2 of 0.98 or greater."}}, "data": [{"compound": "CCCCCCCCc1ccc([C@H]2CCN[C@@H]2CO)cc1.Cl", "note": "[compound 893]", "values": [{"measurement": "Leptin production by adipocytes", "setting": "leptin; in vivo", "result": "reduced leptin production by adipocytes in vivo"}, {"measurement": "Circulating leptin levels (serum)", "setting": "leptin; mice on HFD 4 weeks, 120 mg/kg at ZT8.5, blood at ZT15-18", "result": "lowered levels of circulating leptin"}, {"measurement": "Effect on ARF6", "setting": "ARF6", "result": "inactivates"}, {"measurement": "Cumulative food intake, repeated dosing", "setting": "ob/ob mice; 120 mg/kg Mon/Wed/Fri for 2 weeks", "result": "only a modest decrease in cumulative food intake"}, {"measurement": "Fasting hyperglycemia and glucose tolerance", "setting": "ob/ob mice; 120 mg/kg Mon/Wed/Fri, OGTT at 14 d", "result": "failed to correct fasting hyperglycemia or restore glucose tolerance"}, {"measurement": "Food intake after a single dose", "setting": "ob/ob mice; single oral dose 120 mg/kg", "result": "decreased food intake"}, {"measurement": "Body weight gain", "setting": "ob/ob mice; six doses of 120 mg/kg over 2 weeks", "result": 5, "unit": "%"}, {"measurement": "Tmax", "setting": "[1]", "result": 4, "unit": "h"}, {"measurement": "half-life", "setting": "[1]", "result": 10.6, "unit": "h"}]}]}
